{"source": "patent US6767552B2", "about": "“Adhesive treatment for oral fungal infection” (Closure Medical Corporation, priority 2001, dated 2004)", "assay": "Observation of the haloprogin / 2-octyl cyanoacrylate monomer composition in a sealed glass vial", "format": "physicochemical", "conditions": "30 mg haloprogin in 2 mL 2-octyl cyanoacrylate monomer", "experimental": "A 2-octyl cyanoacrylate monomer composition is prepared by adding 30 mg of haloprogin, an anti-fungal agent, to 2 mL of 2-octyl cyanoacrylate monomer. The mixture is sealed in a glass vial and stirred. The characteristics of the composition are observed at about one minute after preparation and later at least twenty-four hours after preparation.", "data": [{"smiles": "Clc1cc(Cl)c(OCC#CI)cc1Cl", "note": "[haloprogin]", "values": [{"measurement": "premature polymerization of the monomer", "setting": "at least twenty-four hours after preparation", "value": "does not cause premature polymerization"}, {"measurement": "solubility of haloprogin in the monomer", "setting": "observed about one minute and at least twenty-four hours after preparation", "value": "soluble"}]}]}
